Reference: ChEMBL document CHEMBL1201862, “PubChem BioAssay data set” (2004)
Activity calls are given as the source filed them.

How the values were obtained:
Coagulation factor XII = target: T1, Coagulation factor XII (Homo sapiens, UniProt P00748); test: Factor XIIa Dose Response Confirmation from Single Well HTS. [Related pubchem assays (depositor defined):AID701]; type: functional
T1 sequence (P00748 whole entry): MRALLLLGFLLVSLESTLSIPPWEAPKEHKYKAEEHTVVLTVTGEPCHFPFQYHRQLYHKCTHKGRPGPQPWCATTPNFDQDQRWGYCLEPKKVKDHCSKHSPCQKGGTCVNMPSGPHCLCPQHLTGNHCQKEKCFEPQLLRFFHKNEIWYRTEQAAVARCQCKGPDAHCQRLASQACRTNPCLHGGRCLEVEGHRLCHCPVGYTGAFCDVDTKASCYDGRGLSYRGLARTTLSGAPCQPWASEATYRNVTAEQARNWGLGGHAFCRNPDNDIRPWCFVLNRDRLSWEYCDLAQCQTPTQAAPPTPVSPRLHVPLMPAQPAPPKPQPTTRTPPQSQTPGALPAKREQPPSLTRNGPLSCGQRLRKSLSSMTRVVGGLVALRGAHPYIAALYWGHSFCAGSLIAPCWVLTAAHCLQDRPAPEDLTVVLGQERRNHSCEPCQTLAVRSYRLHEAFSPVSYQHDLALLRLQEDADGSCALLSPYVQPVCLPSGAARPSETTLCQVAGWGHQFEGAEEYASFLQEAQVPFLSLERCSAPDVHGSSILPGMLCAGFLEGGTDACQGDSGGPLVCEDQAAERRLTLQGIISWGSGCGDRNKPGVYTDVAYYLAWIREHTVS

T-cell = test: loss of vesicle association with mouse CD8+ T cells – mouse 2C CD8+ T cells, flow cytometry, dose response (AID 485284); type: functional
Integrin alpha-L = Integrin alpha-L (Mus musculus, UniProt P24063); test: modulators of CD8 T cell-vesicle binding, dose response, powder samples, mouse 2C CD8+ cells (AID 504565); type: functional
[1] = target: DNA dC->dU-editing enzyme APOBEC-3A (Homo sapiens, UniProt P31941); test: Dose Response confirmation of small molecule APOBEC3A DNA Deaminase Inhibitors via a fluorescence-based single-stranded DNA deaminase assay. [Related pubchem assays (depositor defined):AID493011, AID493024]; type: functional
Genome polyprotein = Genome polyprotein (dengue virus type 2, UniProt P29990); test: flavivirus cap methylation enzyme inhibition – biochemical, confirmation dose response, primary screen (AID 588689); type: functional
[2] = target: DNA dC->dU-editing enzyme APOBEC-3G (Homo sapiens, UniProt Q9HC16); type: functional;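 further: Dose-response counterscreen measuring inhibition of APOBEC3G DNA deaminase activity, run while confirming APOBEC3A inhibitors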
Vero = test: viability of Vero cells under compound – cytotoxicity control for flavivirus capping enzyme inhibitors (AID 588742); type: functional; settings: Chlorocebus sabaeus
[3] = target: T2, Histone-lysine N-methyltransferase NSD2 (Homo sapiens, UniProt O96028); type: biochemical
T2 sequence (O96028 whole entry): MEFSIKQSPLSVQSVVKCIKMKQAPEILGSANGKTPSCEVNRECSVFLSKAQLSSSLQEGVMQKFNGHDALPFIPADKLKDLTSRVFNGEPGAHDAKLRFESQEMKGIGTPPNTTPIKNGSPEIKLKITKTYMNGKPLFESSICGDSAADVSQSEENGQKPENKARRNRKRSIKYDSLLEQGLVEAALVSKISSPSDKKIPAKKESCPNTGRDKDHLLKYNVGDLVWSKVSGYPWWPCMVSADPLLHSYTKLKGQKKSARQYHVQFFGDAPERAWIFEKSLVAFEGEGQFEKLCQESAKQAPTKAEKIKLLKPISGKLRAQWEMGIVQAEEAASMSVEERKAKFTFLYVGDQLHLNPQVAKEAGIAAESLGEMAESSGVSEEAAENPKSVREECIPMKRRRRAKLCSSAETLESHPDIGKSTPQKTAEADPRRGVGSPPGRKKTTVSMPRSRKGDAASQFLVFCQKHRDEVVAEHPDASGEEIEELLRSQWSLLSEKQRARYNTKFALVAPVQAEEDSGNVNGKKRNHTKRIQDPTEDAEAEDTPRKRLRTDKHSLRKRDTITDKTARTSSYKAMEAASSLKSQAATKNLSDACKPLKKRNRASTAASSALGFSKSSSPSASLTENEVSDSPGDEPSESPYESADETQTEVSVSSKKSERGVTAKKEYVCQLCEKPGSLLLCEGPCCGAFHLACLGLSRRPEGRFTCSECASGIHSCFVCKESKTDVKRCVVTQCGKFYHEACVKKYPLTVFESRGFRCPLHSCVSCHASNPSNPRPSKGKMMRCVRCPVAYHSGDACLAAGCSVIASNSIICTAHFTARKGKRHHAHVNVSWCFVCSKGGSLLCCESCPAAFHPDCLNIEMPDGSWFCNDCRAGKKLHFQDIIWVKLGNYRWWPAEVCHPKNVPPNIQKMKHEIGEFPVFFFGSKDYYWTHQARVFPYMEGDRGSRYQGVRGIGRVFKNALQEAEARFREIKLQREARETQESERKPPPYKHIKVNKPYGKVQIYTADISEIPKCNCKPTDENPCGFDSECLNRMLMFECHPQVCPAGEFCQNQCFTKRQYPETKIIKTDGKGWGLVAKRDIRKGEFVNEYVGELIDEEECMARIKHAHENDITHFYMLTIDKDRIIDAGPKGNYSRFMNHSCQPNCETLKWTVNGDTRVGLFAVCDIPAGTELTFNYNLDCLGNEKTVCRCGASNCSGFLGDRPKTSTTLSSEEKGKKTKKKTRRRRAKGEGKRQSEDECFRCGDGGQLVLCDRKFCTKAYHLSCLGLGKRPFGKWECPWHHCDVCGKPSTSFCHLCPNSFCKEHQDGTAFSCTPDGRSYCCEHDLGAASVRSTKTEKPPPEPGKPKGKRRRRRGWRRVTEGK

[4] = target: T3, Dual specificity protein phosphatase 6 (Rattus norvegicus, UniProt Q64346); type: functional;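 further: confirmatory in vitro dose-response testing of MKP-3 inhibition; recombinant His-tagged MKP-3 made in E. coli BL21 with OMFP substrate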
T3 sequence (Q64346 whole entry): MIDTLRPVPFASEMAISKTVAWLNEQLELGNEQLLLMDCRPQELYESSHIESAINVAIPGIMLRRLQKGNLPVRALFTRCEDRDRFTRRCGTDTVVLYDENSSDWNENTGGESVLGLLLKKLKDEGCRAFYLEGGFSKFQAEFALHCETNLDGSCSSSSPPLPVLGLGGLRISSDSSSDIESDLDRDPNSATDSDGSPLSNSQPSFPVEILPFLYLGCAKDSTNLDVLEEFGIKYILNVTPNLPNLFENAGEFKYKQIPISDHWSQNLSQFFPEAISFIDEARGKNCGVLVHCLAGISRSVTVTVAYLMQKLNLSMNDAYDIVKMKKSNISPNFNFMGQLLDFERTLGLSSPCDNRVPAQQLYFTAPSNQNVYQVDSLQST

[5] = target: T4, Dual specificity protein phosphatase 3 (Homo sapiens, UniProt P51452); test: SAR VHR1 absorbance Assay for In Vitro dose response studies. [Related pubchem assays (depositor defined):AID1654, AID1661, AID1878, AID1992, AID2004]
[6] = target: T5, Tyrosine-protein phosphatase non-receptor type 7 (Homo sapiens, UniProt P35236); test: redox-active compounds inhibiting HePTP phosphatase – biochemical, fluorescence, mechanism study (AID 2068); type: functional
T5 sequence (P35236 whole entry): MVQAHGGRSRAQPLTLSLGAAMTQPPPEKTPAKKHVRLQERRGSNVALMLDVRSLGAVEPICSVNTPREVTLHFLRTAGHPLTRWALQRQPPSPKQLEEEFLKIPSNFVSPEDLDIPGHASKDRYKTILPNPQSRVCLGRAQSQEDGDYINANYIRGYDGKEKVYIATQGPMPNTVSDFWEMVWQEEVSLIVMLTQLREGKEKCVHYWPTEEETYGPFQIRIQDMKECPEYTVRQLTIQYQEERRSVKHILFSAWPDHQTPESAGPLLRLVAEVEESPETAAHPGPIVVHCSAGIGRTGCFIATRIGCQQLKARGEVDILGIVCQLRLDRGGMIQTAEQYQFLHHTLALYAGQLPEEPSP

[7] = target: T4, Dual specificity protein phosphatase 3; test: SAR VHR1 Fluorescent Assay for In Vitro dose response studies. [Related pubchem assays (depositor defined):AID1654, AID1661, AID1878, AID1992, AID2004, AID2070, AID2085]; type: functional
Hexokinase = Hexokinase (Trypanosoma brucei, UniProt Q38C41); test: Confirmation assay for inhibitors of Trypanosoma brucei hexokinase 1-Analogue-first series. [Related pubchem assays (depositor defined):AID1430, AID1632, AID2516, AID2560, AID2579, AID2600, AID449725, AID492951]; type: functional
[8] = target: Glucose-6-phosphate 1-dehydrogenase (Homo sapiens, UniProt P11413); test: inhibition of Homo sapiens G6PD, dose series – biochemical, fluorescence, selectivity assay for P. falciparum G6PD inhibitor project, dose response (AID 504792); type: functional
[9] = target: Induced myeloid leukemia cell differentiation protein Mcl-1 (Homo sapiens, UniProt Q07820); type: functional
[10] = target: T6, Voltage-gated N-type calcium channel alpha-1B subunit/Amyloid beta A4 precursor protein-binding family A member 1 (Homo sapiens, UniProt Q00975+Q02410); type: protein assay
[11] = target: Bifunctional protein GlmU (Mycobacterium tuberculosis, UniProt P9WMN3); test: Inhibitors of Mycobacterial Glucosamine-1-phosphate acetyl transferase (GlmU). Secondary screen.; parameters: species or system Mycobacterium tuberculosis H37Rv
[12] = target: T7, Mannose-6-phosphate isomerase (Homo sapiens, UniProt P34949); test: MPI inhibition at elevated mannose 6-phosphate – biochemical, fluorescence intensity, high mannose 6-phosphate, primary screen (AID 1220)
T7 sequence (P34949 whole entry): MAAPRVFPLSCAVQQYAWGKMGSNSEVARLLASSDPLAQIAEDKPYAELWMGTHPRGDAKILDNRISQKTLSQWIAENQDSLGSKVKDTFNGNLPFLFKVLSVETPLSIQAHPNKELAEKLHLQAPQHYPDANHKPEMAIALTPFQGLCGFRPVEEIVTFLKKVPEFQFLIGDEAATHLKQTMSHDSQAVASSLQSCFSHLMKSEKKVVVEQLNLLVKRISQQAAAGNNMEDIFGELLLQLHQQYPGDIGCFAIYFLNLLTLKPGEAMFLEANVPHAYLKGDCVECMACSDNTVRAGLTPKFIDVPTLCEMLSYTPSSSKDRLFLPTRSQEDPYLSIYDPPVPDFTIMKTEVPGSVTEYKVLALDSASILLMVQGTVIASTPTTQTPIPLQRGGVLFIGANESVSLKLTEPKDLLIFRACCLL

[13] = target: T6, Voltage-gated N-type calcium channel alpha-1B subunit/Amyloid beta A4 precursor protein-binding family A member 1; type: protein assay; remark: listed apart in the source
[14] = target: Eukaryotic translation initiation factor 4E (Mus musculus, UniProt P63073); test: blockers of eIF4G binding by eIF4E – biochemical, TR-FRET, dose response (AID 855); type: functional;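 further: potency for disrupting eIF4E binding to eIF4GI seen as loss of FRET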
[15] = target: T8, Kappa-type opioid receptor (Homo sapiens, UniProt P41145); test: SAR analysis of small molecule antagonists of the kappa opioid receptor via a luminescent beta-arrestin assay - Set 3. [Related pubchem assays (depositor defined):AID1777, AID1778, AID1785, AID1786, AID1966, AID2133, AID2136, AID2285, AID2495]; type: functional
[16] = target: Delta-type opioid receptor (Homo sapiens, UniProt P41143); test: SAR Analysis of Antagonists of the DOR Receptor using an Image-Based Assay - Set 3. [Related pubchem assays (depositor defined):AID1777, AID1785]; type: functional;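 further: U2OS cells expressing DOR1 and beta-arrestin GFP stimulated with 100 nM SNC80; imaging of GFP-tagged beta-arrestin moving into spots after receptor activation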
[17] = target: T8, Kappa-type opioid receptor; test: SAR analysis of Antagonists of the Kappa Opioid Receptor (KOR) using an Image-Based Assay - Set 3. [Related pubchem assays (depositor defined):AID1777, AID1785]; type: functional
Mu-type opioid receptor = Mu-type opioid receptor (Homo sapiens, UniProt P35372); test: SAR Analysis of Antagonists of the MOR Receptor using an Image-Based Assay - Set 3. [Related pubchem assays (depositor defined):AID1777, AID1785, AID1786, AID1966, AID2133, AID2136, AID2284, AID2285, AID2420]; type: functional

Genome polyprotein, sequence (P29990 2492-3391 limits assumed): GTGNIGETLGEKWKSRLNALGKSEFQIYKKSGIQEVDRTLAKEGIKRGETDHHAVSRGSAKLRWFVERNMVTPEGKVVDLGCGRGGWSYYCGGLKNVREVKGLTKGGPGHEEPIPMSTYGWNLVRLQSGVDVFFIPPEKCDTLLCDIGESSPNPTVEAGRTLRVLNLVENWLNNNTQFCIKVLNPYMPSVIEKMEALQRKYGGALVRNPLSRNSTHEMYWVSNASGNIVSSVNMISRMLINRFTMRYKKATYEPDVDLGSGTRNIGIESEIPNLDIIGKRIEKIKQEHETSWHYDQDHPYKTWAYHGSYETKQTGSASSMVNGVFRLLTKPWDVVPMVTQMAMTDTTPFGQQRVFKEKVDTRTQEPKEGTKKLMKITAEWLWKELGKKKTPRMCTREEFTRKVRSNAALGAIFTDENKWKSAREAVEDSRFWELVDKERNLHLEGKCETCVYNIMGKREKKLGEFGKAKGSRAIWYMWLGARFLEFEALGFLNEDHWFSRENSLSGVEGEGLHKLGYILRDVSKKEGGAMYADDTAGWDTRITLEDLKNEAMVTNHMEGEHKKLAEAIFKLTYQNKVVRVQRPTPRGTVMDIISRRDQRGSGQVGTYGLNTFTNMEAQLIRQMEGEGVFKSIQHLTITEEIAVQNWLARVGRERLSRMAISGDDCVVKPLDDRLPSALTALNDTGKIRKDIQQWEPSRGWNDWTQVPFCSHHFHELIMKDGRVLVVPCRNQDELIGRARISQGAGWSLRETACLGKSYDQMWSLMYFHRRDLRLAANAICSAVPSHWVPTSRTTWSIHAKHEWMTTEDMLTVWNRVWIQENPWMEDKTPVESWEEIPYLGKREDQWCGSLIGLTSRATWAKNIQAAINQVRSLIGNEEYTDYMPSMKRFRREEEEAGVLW
T8 sequence (P41145 whole entry): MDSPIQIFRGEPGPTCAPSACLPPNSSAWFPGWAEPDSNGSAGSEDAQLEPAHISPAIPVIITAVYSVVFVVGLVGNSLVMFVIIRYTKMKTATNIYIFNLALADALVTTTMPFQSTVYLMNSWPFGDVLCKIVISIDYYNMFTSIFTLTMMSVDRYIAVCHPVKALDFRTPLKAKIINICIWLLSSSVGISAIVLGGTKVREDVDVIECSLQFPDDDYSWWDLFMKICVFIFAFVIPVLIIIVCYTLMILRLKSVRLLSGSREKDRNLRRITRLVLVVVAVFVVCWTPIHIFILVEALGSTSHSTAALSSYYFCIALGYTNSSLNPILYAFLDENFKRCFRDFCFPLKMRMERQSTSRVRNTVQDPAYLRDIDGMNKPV
T4 sequence (P51452 whole entry): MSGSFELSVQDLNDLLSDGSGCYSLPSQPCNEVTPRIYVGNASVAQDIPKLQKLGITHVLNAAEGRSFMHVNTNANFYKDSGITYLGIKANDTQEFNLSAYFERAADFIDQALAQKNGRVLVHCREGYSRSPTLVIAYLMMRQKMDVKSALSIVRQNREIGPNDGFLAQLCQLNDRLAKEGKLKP
T6 sequence (Q00975 whole entry): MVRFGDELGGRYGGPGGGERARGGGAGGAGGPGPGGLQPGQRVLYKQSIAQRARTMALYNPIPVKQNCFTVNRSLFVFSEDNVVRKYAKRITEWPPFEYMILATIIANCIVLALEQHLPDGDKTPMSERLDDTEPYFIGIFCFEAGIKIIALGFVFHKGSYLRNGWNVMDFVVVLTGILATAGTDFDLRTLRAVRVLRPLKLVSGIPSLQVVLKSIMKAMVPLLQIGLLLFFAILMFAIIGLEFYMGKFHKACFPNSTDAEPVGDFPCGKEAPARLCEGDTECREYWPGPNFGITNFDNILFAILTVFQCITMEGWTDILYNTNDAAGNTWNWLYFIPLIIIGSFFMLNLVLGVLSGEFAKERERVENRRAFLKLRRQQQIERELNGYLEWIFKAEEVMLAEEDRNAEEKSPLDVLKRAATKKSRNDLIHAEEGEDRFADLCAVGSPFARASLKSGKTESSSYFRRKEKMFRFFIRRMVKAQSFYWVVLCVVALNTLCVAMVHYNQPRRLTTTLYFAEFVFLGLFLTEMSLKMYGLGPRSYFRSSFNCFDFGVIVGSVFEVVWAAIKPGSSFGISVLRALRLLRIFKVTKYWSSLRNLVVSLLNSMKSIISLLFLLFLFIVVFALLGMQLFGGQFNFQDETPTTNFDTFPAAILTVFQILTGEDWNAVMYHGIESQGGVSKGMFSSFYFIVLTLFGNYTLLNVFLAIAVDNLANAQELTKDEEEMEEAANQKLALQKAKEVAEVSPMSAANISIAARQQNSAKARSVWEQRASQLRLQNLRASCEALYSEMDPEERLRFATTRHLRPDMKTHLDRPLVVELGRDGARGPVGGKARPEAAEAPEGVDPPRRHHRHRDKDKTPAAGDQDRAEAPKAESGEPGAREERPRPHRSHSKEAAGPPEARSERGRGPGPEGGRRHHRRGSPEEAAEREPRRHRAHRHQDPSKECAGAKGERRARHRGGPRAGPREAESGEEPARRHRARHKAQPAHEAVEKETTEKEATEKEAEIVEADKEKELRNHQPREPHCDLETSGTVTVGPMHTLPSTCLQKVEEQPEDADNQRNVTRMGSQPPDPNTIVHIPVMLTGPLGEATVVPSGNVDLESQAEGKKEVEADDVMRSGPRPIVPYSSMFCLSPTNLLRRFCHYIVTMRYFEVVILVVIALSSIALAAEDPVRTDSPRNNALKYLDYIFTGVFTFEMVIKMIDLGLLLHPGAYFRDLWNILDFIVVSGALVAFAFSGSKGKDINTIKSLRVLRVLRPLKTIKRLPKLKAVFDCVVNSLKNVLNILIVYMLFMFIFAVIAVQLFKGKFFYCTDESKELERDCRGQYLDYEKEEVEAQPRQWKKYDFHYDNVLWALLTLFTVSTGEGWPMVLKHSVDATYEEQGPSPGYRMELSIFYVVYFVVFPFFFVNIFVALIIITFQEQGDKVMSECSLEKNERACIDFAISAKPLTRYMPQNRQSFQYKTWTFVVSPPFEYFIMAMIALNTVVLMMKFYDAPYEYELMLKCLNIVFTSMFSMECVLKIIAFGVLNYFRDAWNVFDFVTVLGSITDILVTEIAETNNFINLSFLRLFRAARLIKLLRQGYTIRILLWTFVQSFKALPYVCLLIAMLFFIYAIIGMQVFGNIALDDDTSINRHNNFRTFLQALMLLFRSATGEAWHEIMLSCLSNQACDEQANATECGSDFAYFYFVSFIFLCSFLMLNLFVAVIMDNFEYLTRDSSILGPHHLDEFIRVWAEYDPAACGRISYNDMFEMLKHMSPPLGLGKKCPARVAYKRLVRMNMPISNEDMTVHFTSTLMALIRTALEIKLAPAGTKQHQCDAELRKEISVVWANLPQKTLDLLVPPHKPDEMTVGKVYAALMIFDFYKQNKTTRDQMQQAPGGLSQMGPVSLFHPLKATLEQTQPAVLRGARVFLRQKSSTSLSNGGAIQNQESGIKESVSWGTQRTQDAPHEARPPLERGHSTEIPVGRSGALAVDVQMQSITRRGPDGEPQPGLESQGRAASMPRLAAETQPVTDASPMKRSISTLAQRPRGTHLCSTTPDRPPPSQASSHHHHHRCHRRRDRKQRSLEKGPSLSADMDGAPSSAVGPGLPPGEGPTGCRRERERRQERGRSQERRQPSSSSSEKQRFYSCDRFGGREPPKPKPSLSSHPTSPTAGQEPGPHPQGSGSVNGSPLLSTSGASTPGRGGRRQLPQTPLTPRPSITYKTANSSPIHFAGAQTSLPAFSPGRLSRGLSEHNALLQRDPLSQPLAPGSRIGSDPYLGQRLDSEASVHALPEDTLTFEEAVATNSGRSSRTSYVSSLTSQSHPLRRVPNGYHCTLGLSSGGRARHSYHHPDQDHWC
T6 sequence (Q02410 whole entry): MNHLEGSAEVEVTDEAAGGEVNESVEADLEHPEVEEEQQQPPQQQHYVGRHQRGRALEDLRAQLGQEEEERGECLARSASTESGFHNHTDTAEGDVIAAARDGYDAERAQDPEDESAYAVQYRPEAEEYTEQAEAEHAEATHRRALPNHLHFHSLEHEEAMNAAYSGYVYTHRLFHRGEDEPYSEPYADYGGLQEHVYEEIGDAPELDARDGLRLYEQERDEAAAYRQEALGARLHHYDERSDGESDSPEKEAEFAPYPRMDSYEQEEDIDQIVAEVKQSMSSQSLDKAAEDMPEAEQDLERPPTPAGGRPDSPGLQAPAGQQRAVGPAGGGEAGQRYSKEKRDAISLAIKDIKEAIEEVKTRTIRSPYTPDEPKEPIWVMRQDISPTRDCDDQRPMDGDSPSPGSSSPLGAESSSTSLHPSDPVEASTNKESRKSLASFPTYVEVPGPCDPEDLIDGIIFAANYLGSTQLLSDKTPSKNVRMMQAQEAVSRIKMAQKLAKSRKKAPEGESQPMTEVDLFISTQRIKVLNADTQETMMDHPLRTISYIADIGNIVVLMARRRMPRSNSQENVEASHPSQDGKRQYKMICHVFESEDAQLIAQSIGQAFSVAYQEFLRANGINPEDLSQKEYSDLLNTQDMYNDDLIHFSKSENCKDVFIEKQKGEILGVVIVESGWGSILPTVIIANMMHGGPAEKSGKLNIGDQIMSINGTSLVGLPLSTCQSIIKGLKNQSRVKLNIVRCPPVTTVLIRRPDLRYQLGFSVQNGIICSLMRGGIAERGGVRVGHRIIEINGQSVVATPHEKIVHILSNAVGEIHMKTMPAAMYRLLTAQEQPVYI
Eukaryotic translation initiation factor 4E, sequence (P63073 whole entry): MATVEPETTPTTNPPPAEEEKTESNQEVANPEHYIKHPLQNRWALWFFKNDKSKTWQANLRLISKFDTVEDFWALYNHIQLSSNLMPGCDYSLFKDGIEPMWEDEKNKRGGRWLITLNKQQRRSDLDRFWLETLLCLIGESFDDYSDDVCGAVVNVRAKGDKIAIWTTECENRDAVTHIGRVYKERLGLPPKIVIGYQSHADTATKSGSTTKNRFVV
DNA dC->dU-editing enzyme APOBEC-3A, sequence (P31941 whole entry): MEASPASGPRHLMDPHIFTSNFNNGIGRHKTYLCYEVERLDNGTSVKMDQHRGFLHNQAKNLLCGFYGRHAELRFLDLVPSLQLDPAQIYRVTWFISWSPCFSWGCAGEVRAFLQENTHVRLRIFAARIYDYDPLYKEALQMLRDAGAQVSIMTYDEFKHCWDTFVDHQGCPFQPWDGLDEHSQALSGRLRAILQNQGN

Cc1cc(NC(=O)COC(=O)c2c(C)nn(Cc3ccccc3)c2C)no1
IC50 (Coagulation factor XII): > 50 µM (inactive)

Cc1cc(Cl)c(OCCCSc2nc(C)cc(O)n2)c(Br)c1
EC50 (T-cell): 56.6 µM (inactive)
EC50 (Integrin alpha-L): 17.1 µM (active)

CC(C)C1Nc2ccc(C(=O)O)cc2C2C=CCC21 (configuration not stated)
IC50 [1]: 21.8 µM (active)
IC50 (Genome polyprotein): 38.7 µM (active)
IC50 [2]: 16.2 µM (active)
CC50 (Vero): > 40 µM (active)
AC50 [3]: > 20 µM (inactive)

O=C(NCc1ccccc1)c1cn(CCOc2ccccc2)c2ccccc12
IC50 [4]: > 100 µM (inactive)
IC50 [5]: > 100 µM (inactive)
IC50 [6]: 44.1 µM (active)
IC50 [7]: > 100 µM (inactive)

O=C(Nc1cc(Cl)ccc1C(=O)O)c1ccc2c(c1)OCO2
IC50 (Hexokinase): 9.43 µM (active)

Oc1ccc(/C=N/N=C(c2ccccc2)c2ccccc2)c(O)c1O
IC50 [8]: 79.2 µM (inactive)
IC50 [9]: 4.44 µM (active)
IC50 [10]: 10.8 µM (active)
IC50 [11]: 19.3 µM (active)
IC50 [12]: 12.1 µM (active)
IC50 [13]: 3.27 µM (active)
IC50 (Genome polyprotein): 23.4 µM (active)
CC50 (Vero): 31.3 µM (active)
IC50 [14]: > 64 µM (inactive)
AC50 [3]: 0.635 µM (active)

COc1ccc(S(=O)(=O)NCc2ccc(C(=O)NCCN(Cc3ccccc3)Cc3ccccc3)cc2)cc1
IC50 [15]: > 20 µM (inactive)
IC50 [16]: > 32 µM (inactive)
IC50 [17]: 13.1 µM (inactive)
IC50 (Mu-type opioid receptor): > 32 µM (inactive)
